The results in this text go back to patent US12116421B2, “Peptide-based Dopa containing adhesive gels” (KING ABDULLAH UNIVERSITY OF SCIENCE AND TECHNOLOGY, priority 2020, dated 2024).

For data set [1], the system named is mouse myoblast cells (C2C12). Put plainly: Cytocompatibility of peptide nanogels, 3D culture, MTT and live/dead staining. Format: cell-based. Particulars: for effect on cell growth: C2C12, nanogel 3 mg/mL, compared to 2D culture; for biocompatibility with C2C12 cells: hydrogel scaffold, live/dead staining versus 2D culture. On the procedure:
In one embodiment, cytocompatibility of the peptide nanogels was evaluated using mouse myoblast cells (C2C12). After 24 hours of incubation, cell proliferation was tested with DoIIZK, IIZDoK, IIZKDo, IIZ(KDo)2 and IIZ(KDo)3 at a concentration of 3 mg/mL to evaluate biocompatibility. The MTT (3-(4,5-dimethylthiazol-2-yl)-2,5-diphenyltetrazolium bromide) assay was used in order to quantify the number of viable cells. In one embodiment, a standard curve for a known number of cells was also plotted. In one embodiment, the test results were compared to the positive control 2D culture. A positive indication of cytocompatibility would be the survival of the cells following incubation with the peptides. For comparison, peptides DoIIZK, IIZDoK, IIZKDo, IIZ(KDo)2 and IIZ(KDo)3 were tested as part of the study. The cytocompatibilty of all peptides tested was evaluated by quantifying the survival cells by visualising the live/dead cells using calcein AM and Ethidium bromide staining.
Poli-D Lysine (PDL) was used for 2D control. The scalebar in FIG. 35 is 200 μm. Cytocompatibility of all peptides was evaluated by quantifying the survival cells by visualising the live/dead cells using calcein AM and Ethidium homodimer staining. The live cells are stained green by calcein AM, while the dead cells are stained red by Ethidium homodimer.
For mouse myoblast cells (C2C12) culture expansion, C2C12 cells were cultured either in a T175 or T75 culture flask in complete DMEM media (10% FBS and 1% P/S). The cells were placed in a humidified incubator at 37° C., with 95% air and 5% CO2. Then they were subcultured using trypsin at approximately 80% confluence. Fresh culture media was added every 48 h to each well, after removing the previous media.
For 3D culture of mouse myoblast cells in peptide hydrogels and cell viability assay, C2C12 cells were encapsulated in peptide hydrogels in a 96-well plate.^61 Briefly, peptide solutions DopaIIZK, IIZDopaK, IIZKDopa (3 mg/mL) were added to 40 μL/well. Mouse myoblast cells (30,000 cells/well) that were re-suspended in 2×PBS were then, mixed gently with the peptide solutions. The gelation time was 1-3 min for all 5 peptides. Subsequently, the culture medium was added to the wells.
The viability of 3D cultured cells was assessed using the LIVE/DEAD Viability/Cytotoxicity Kit (ThermoFisher®, USA)^11. Calcein acetoxymethyl ester (Calcein-AM) is used to detect viable cells and ethidium homodimer-I (EthD-I) is used to detect dead cells. Briefly, staining with 2 μM of Calcein-AM and 4 μM of EthD-1 is performed after washing with Dulbecco's phosphate-buffered saline (D-PBS). After 30 minutes incubation, the staining solution was discarded, and 1×D-PBS was added to each well before imaging. Stained cells were imaged with an inverted confocal microscope (Zeiss® LSM 710 Inverted Confocal Microscope, Germany) or ZEISS® fluorescent microscope.

Data set [2] has as its system mouse myoblast cells (C2C12). Described as above. The data set is classed as cell-based. Particulars: various concentrations up to the solubility limit of the peptides.
Data set [3] can be described thus: AFM force spectroscopy adhesion measurement in liquid. The data set is classed as physicochemical. On the procedure: In one embodiment, the peptides were dissolved in the proper solution at a concentration of 10 mg/mL. The peptide solutions were spotted on a freshly cleaved mica sheet and the measurement was performed in liquid.
In one embodiment, the adhesion properties of the Dopa peptides are influenced by the construct lysine-Dopa and by the position of the catechol moiety in the peptide sequence, as indicated by the AFM force spectroscopy results in liquid. In a typical force spectroscopy curve the probe is several times approached to the surface and retracted and for every cycle of retraction the maximum force of adhesion is recorded. The incorporation of a catechol moiety near a lysine would enhance adhesion to negatively charged surfaces. FIG. 28 illustrates the effect of lysine on adhesion to negatively charged surfaces. Therefore, probes and substrates that were manifesting negative charges on their surfaces, such as the silicon probe and the freshly cleaved mica substrate, are used in the AFM spectroscopy. The setup of probe and substrate is illustrated in FIG. 29.
The peptides dissolved in the proper solution at 13 mM concentration each, were spotted on a freshly cleaved mica sheet and the measurement was performed in liquid. Several force curves were recorded for different buffers. […] In FIG. 30, the inset image represents the maximum extension of each peptide dissolved in water, when manually pulled between two glass slides. Also in FIG. 30, the approach part of the curve contains the important information defined as “jump to contact”, while the retract part of the F-D curve contains the adhesion force value. […] Two controls were also introduced: namely the original peptide IIZK, and an alternative peptide IIFK. To better understand the influence of Dopa on the adhesion properties of the peptide, the original short peptide IIZK would make a perfect negative control. We also introduced as a control the IIFK peptide in order to understand the effect of IIZK itself on adhesion. In FIG. 32, statistical significance expressed as p<0.01.
AFM topography measurements were performed on a Dimension Icon SPM (Bruker®). The samples were prepared as follows: peptides were dissolved at 13 mM concentration in MilliQ® water; after 30 minutes, 20 μl of these solutions were dropped on freshly cleaved mica sheets and immediately dried with an N2 stream. Measurements were immediately performed in tapping mode in air by the use of an AFM probe AC_240TS_R3 (Olympus®) with nominal free oscillation at roughly 70 kHz and a nominal spring constant of 2 N/m. The probe was calibrated by contact-free method.^54 Free oscillation amplitude was set at 200 mV with a 5% damping during tapping mode measurement. AFM adhesion measurements were performed on a JPK Nanowizard™ III mounted on Olympus® IX-81 inverted optical microscope. A mica sheet was glued one day before the experiment with double component epoxy glue to a glass slide and enclosed in a plastic o-ring provided by the JPK company for liquid measurements. Each peptide was dissolved in MilliQ® water at a concentration of 13 mM and mixed gently. Starting with the measurement in MilliQ® water, 50 μL of the solution were dropped on the freshly cleaved mica sheet within 5 minutes from the preparation of the solution and let equilibrate for 10 minutes. After, the excess solution was removed by pipetting and discarded. Then 1 mL of MilliQ® water was added gently from the side and after 5 minutes, the sample was rinsed 3 times by additional 1 mL MilliQ® water. Finally, the sample was measured by AFM force spectroscopy (Quantitative imaging mode) with additional 1 mL MilliQ® water. The MilliQ® water was exchanged after the measurement alternatively with a water solution containing 137 mM NaCl or 10 mM Phosphate ions (a combination of Na2HPO4·7H2O and NaH2PO4·H2O to reach pH 7.4). After performing the force spectroscopy map in these two different solutions, eventually, the liquid was exchanged with 1×PBS pH 7.4. […]

Where a SMILES comes first, the peptide text is derived from it. [ ]: non-standard residue; d: D form. Dopa = N[C@@H](Cc1ccc(O)c(O)c1)C(=O)O; Cha = N[C@@H](CC1CCCCC1)C(=O)O

`CC[C@H](C)[C@H](NC(C)=O)C(=O)N[C@H](C(=O)N[C@@H](CC1CCCCC1)C(=O)N[C@@H](CCCCN)C(=O)N[C@@H](Cc1ccc(O)c(O)c1)C(=O)N[C@@H](CCCCN)C(=O)N[C@@H](Cc1ccc(O)c(O)c1)C(N)=O)[C@@H](C)CC` [IIZ(KDo)2] (Ac-II[Cha]K[Dopa]K[Dopa]-NH2): in data set [1], the “effect on cell growth” value is “did not affect cell growth” and the “biocompatibility with C2C12 cells” value is recorded as “biocompatible”. Moreover, in data set [1] (cells cultured in nanogels, 2D = cells in absence of peptides), the “metabolic activity of cells versus 2D cultures” value is “consistently comparable to 2D cultures”. Also, in data set [1] (cells grown in nanogels), the “time cells stay metabolically active in nanogel” value is “metabolically active for up to day 21”. Also, the “cell viability / toxicity” value in data set [2] is “good viability”.
On to `CC[C@H](C)[C@H](NC(C)=O)C(=O)N[C@H](C(=O)N[C@@H](CC1CCCCC1)C(=O)N[C@@H](CCCCN)C(=O)N[C@@H](Cc1ccc(O)c(O)c1)C(=O)N[C@@H](CCCCN)C(=O)N[C@@H](Cc1ccc(O)c(O)c1)C(=O)N[C@@H](CCCCN)C(=O)N[C@@H](Cc1ccc(O)c(O)c1)C(N)=O)[C@@H](C)CC` [IIZ(KDo)3] (Ac-II[Cha]K[Dopa]K[Dopa]K[Dopa]-NH2), for which, in data set [1], the “effect on cell growth” value is “reduced cell growth” and the “biocompatibility with C2C12 cells” value is reported as “not biocompatible”. Further, the “cell viability / toxicity” value in data set [2] was “toxic”.
Take “Ac-II[Cha]K-NH2 [IIZK, reference compound]”: the “Force of adhesion (Geometric Mean)” value in data set [3] (10 mM PO4, peptide 13 mM) came to 5.681 PN; in data set [3] (137 mM NaCl, peptide 13 mM), 100.4 PN; in data set [3] (1×PBS, peptide 13 mM), 11.5885 PN; in data set [3] (MilliQ water, peptide 13 mM), 75.66 PN. In addition, the “increase of adhesion force by addition of NaCl” value in data set [3] (NaCl versus MilliQ water) is 20%.
As for “Ac-Ile-Ile-Phe-Lys-NH2 (Ac-IIFK-NH2) [alternative peptide used as control, reference compound]”, the “Force of adhesion (Geometric Mean)” value in data set [3] (10 mM PO4, peptide 13 mM) is given as 8.358 PN; in data set [3] (137 mM NaCl, peptide 13 mM) it was 13.217 PN; in data set [3] (1×PBS, peptide 13 mM) it was 12.13 PN; in data set [3] (MilliQ water, peptide 13 mM) it was 89.77 PN. Further, in data set [3] (NaCl and PO4 versus MilliQ water), the “reduction of adhesion values by addition of both NaCl and PO4” value is “about 80%”.
